Experimental findings from US20240376119A1, “SPIRO COMPOUND AND USE THEREOF” (CSPC Zhongqi Pharmaceutical Technology (Shijiazhuang) Co., …, priority 2021, published 2024) are described below.

Data set [1] can be described thus: Mouse pharmacokinetic assay (intragastric administration, plasma HPLC-MS/MS). Conditions: ICR mice. In kind it is in vivo. How it is done: ICR mice were intragastrically administered with the compound at 10 mg/kg or 20 mg/kg. At different time points (0.25 h, 0.5 h, 1 h, 2 h, 4 h, 8 h, 24 h) after administration, the mice blood was collected from the orbit. The collected whole blood was anticoagulated with heparin sodium and centrifuged at 3000 g to obtain mouse plasma samples. Methanol was added to precipitate proteins. The drug concentration in the mouse plasma after administration was determined by the HPLC-MS/MS method. A drug concentration-time curve was plotted and the pharmacokinetic parameters were calculated. The pharmacokinetic behavior in mice after the compound administration was described by means of non-compartment model statistical moment parameters.

Data set [2] concerns the target SHP2 (Homo sapiens (Human), UniProt Q06124). The data set is described as follows: Assay for the inhibitory effect on the SHP2 enzyme (DiFMUP substrate, fluorescence). Conditions: SHP2 activated with SHP-2 activated peptide; DiFMUP 10 μM; read-out: Enzymatic Effect (IC50 on SHP2). The data set is classed as biochemical. How it is done: 1× Assay buffer was prepared. A compound to be tested was diluted with DMSO solvent to a stock concentration of 10 mM. The compound to be tested was first diluted to an intermediate concentration of 1000 μM and then further diluted in a 3-fold gradient using DMSO. Therefore, the intermediate gradient dilution concentration of the compound to be tested was: 1000 μM, 3-fold dilution, 11 gradients. 100 nL of each concentration of the compound in the 384-well LDV echo plate was transferred to a new 384-well ELISA plate (assay plate) (corning, Cat #4514) by the Echo550 instrument. The final concentration of the compound to be tested was 10 μM, 3-fold dilution, 11 gradients in duplicate after 10 μL of the reaction reagent was added. The final DMSO concentration was 1%. For both negative and positive control wells, 100 nL DMSO would be transferred.
A mixed liquor of 2× working SHP2 reagent (0.4 nM) and 0.5 μM SHP-2 activated peptide (BPS bioscience #79319-2) was prepared with 1× enzyme buffer. After the above-mixed liquor was incubated at 25° C. for 60 minutes, 5 μL of activated SHP2 kinase solution was transferred with a pipettor to the compound wells and the Max control wells (Corning, #4514) of the plate. Then 5 μL of 1× kinase buffer was transferred to the Min control wells. The plate was centrifuged at 1000 rpm for 30 seconds, sealed, and incubated in a 25° C. constant-temperature incubator for 30 minutes. A substrate solution of DiFMUP (#D6567, Invitrogen™) was prepared with 1× kinase buffer, and its concentration should be 2 times as the final concentration of the assay (DiFMUP final concentration: 10 μM). 5 μL of the prepared substrate solution was transferred with an electric pipettor into each well of the ELISA plate to start the reaction. The plate was centrifuged at 1000 rpm for 30 seconds, sealed, and incubated in a 25° C. constant-temperature incubator for 60 minutes. Read the plate at the excitation/emission wavelength of 358/455 nm after the ELISA plate was placed on the Spark machine.
The RLU values were collected from Spark and the inhibition rate was calculated with the RLU values. Inhibition rate=(maximum value-sample RLU)/(maximum value-minimum value)*100. “Minimum value” was referred to the RLU of the enzyme-free control, and “maximum value” was referred to the RLU of the DMSO control. The data were fit by using the XLFit Excel module (version 5.4.0.8) to obtain IC50 values, and the results are shown in Table 1.

The test system of data set [3] is human acute myeloid leukemia MV-4-11 cells. Kind of data set: In vitro inhibitory effect on the proliferation of MV-4-11 cells (MTT, 72 h). In kind it is cell-based. The note with it: MV4-11, 72 hours exposure. The protocol:
The human acute myeloid leukemia MV-4-11 cells used in the assay were purchased from Shanghai Institutes for Biological Sciences, Chinese Academy of Sciences. The complete culture medium required for cell culture was IMDM (GIBCO Company), which was supplemented with 10% fetal bovine serum (GIBCO Company). Cells were cultured in a 37° C., 5% CO2 incubator. The reagents used in the assay included dimethyl sulfoxide (purchased from Tianjin Kemiou Chemical Reagent Co., Ltd.), and MTT (Shanghai Topbiochem Co., Ltd., CAS. NO. 298-93-1). The test substance was sealed and stored at 4° C.
Dimethyl sulfoxide was used as the solvent to fully dissolve the test substance and prepare a stock solution with a concentration of 5×10^−2 mol/L. The stock solution was stored at −20° C. A complete culture medium was used as the diluent, and the test substance was diluted to different concentrations in a gradient for later use. 100 µL/well (2×10^4 cells/well) of a suspension of MV-4-11 cells in the complete culture medium was added to a 96-well culture plate. 100 μL/well of the corresponding test substances at different concentrations were added respectively. 8 concentrations were set for each test substance, and 3 duplicate wells were set for each concentration. The plate was cultured in a 37° C., 5% CO2 incubator. 20 μL/well of MTT was added after 72 hours of exposure to the test substances. The plate was cultured for 4 hours in a 37° C., 5% CO2 incubator. The supernatant was discarded, and 150 μL/well of dimethyl sulfoxide was added. The plate contents were oscillated and mixed evenly. The microplate reader was used to detect the OD value at a wavelength of 550 nm. The well only containing the cell suspension without test substance was a control well, and the well only containing the complete culture medium was a blank well. The inhibition rate of the cell growth was calculated with the following formula: • Inhibition rate=(ODcontrol well-ODtest well)/(ODcontrol well-ODblank well)*100%. According to the inhibition rates at each concentration, SPSS software was used to calculate the half inhibitory concentration IC50 value.

For data set [4], the target named is hERG channel (Homo sapiens (Human), UniProt Q12809). Kind of data set: hERG assay, manual whole-cell patch clamp in CHO-K1 cell line stably expressing the hERG channel. The data set is classed as cell-based. The protocol:
This assay included the following aspects: • A manual patch clamp technique was used to record the hERG current in the CHO-K1 cell line stably expressing the hERG channel; • The inhibition rate at each concentration was calculated based on the hERG tail current; • Each compound was tested at 5 concentrations to calculate the IC50 value; • Three cells were tested for each concentration; • One positive control drug was set.
HERG currents were recorded using the whole-cell patch-clamp technique. The cell suspension was added to the cell tank and placed on the upright microscope stage. After the cell adherence, the cells were perfused with extracellular fluid at a flow rate of 1-2 mL/min. The glass microelectrode was drawn in two steps by a micropipette puller, and its resistance value in water was 2-5 MΩ. After establishing the whole-cell recording, the clamp potential was maintained at −80 mV. The hERG tail current was elicited by applying a depolarizing voltage to +60 mV upon the voltage stimulation and then repolarizing to −50 mV. All recordings were made after the current stabilization. Extracellular perfusion administration started from a low concentration, and each concentration lasted for 5-10 minutes until the current was stable, and then proceeded to the next concentration.
The half inhibitory concentration (ICSO) of the test compound was derived from the best fit of the Logistic equation.
Background: hERG is a cardiac potassium channel; its block is linked to QT prolongation.

A short description of data set [5]: Mouse tolerance assay (once daily for 7 consecutive days). The data set is classed as in vivo. Conditions: female ICR mice. How it is done: • Assay animals: ICR mice, female, 5 weeks old • Solvent: 2% DMSO+98% (0.5% MC), treated by sufficient vortex and sonicated to obtain a uniform suspension • Assay method: Female ICR mice were divided into 4 groups according to weight balance, with 5 mice in each group. The administration doses were 50 mg/kg and 200 mg/kg respectively. The compound was administrated once daily for 7 consecutive days.

[6] abbreviates: mouse, po, intragastric, 20 mg/kg, plasma.

Sequence of SHP2 (Q06124 whole entry): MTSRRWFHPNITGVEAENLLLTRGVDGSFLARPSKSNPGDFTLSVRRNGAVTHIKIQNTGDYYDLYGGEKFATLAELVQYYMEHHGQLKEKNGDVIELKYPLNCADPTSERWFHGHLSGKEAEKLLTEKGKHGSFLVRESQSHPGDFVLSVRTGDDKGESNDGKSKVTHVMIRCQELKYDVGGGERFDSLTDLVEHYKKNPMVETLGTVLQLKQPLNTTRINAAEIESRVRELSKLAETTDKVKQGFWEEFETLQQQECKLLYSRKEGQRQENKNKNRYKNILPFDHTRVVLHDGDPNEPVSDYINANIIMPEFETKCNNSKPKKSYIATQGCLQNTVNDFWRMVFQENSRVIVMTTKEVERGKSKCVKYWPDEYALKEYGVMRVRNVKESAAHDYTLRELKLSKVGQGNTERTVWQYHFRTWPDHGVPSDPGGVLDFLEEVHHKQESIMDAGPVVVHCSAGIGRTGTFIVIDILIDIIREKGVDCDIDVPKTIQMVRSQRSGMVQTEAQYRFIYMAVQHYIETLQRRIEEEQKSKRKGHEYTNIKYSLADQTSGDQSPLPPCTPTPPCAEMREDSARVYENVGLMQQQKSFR
Sequence of hERG channel (Q12809 whole entry): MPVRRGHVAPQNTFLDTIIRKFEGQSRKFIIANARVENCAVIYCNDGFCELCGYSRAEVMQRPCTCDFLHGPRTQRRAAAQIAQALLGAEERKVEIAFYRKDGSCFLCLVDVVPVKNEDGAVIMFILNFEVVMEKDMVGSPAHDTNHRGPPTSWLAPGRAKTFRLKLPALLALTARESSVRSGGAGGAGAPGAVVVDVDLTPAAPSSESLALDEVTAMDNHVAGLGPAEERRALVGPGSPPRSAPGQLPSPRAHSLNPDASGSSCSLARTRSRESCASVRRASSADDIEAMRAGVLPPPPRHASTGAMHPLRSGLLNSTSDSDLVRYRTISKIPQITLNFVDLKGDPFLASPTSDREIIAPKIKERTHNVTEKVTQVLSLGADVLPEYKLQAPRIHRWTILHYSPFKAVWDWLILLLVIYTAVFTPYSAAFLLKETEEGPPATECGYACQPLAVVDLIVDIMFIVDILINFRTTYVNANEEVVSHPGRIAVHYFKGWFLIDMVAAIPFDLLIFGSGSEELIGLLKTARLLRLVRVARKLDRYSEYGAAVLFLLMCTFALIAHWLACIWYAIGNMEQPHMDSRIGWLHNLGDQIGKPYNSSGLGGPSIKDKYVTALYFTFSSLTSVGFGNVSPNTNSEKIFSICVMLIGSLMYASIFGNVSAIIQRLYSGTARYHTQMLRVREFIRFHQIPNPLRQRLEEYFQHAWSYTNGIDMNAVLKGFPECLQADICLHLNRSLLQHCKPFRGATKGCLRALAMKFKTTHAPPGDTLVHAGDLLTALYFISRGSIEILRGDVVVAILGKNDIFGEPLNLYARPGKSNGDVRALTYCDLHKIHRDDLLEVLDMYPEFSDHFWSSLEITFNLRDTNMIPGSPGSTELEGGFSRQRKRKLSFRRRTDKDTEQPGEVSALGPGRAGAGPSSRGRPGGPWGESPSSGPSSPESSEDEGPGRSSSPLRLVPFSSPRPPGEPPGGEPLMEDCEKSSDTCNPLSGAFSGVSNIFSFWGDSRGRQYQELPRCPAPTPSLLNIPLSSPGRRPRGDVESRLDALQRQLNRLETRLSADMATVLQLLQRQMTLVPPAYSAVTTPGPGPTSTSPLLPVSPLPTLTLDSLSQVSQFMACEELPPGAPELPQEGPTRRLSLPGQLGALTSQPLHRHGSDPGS

In general, Cmax refers to the peak of the concentration-time curve. The Tmax is the time at which the peak concentration occurs. As a reminder, the IC50 is the point on the concentration scale where inhibition reaches its midpoint. Regarding `CC(=O)c1nc(Sc2cccc(-c3ncco3)c2Cl)c(N)nc1N1CCC2(CC1)Oc1ccccc1[C@H]2N` [Compound 1, (R)-1-(5-amino-3-(3-amino-3H-spiro[benzofuran-2,4′-piperidine]-1′-yl)-6-((2-chloro-3-(oxazole-2-yl)phenyl)sulfanyl)pyrazine-2-yl)ethanone], in data set [1] (intragastric administration), the “exposure and absorption in mice (in words)” value is “relatively high exposure in mice and both were well absorbed in vivo”. In data set [1] (setting [6]), this molecule came in with a Cmax of 2490 ng/mL. Moreover, the Tmax in data set [1] (setting [6]) was 4 h. Further, in data set [1] (mouse, po, intragastric, 20 mg/kg, plasma, read-out: AUC0-24 h), the AUC(0-t) amounted to 16900 ng·h/mL. Moreover, the IC50 was no more than 20 nM in data set [2]; no more than 20 nM in data set [3]; greater than 10000 nM in data set [4] (CHO-K1 stable cell line, hERG tail current, 5 concentrations). Further, in data set [4] (within the detection concentration range of the assay), the “inhibitory effect on the hERG channel (in words)” value is “no obvious inhibitory effect on the hERG channel”.
Take `CC(=O)c1nc(Sc2cccc(-c3ncco3)c2Cl)cnc1N1CCC2(CC1)Oc1ccccc1[C@H]2N` [Compound 8]: the IC50 in data set [2] and in data set [3] was no more than 20 nM in each case.
Consider `COC(=O)c1nc(Sc2cccc(-c3ncco3)c2Cl)c(N)nc1N1CCC2(CC1)Oc1ccccc1[C@H]2N` [Compound 16, (R)-5-amino-3-(3-amino-3H-spiro[benzofuran-2,4′-piperidine]-1′-yl)-6-((2-chloro-3-(oxazole-2-yl)phenyl)sulfanyl)pyrazine-2-carboxylic acid methyl ester], for which the IC50 in data set [2] and in data set [3] was no more than 20 nM throughout.
`COC(=O)c1nc(Sc2cccc(-c3ccn(C)n3)c2Cl)cnc1N1CCC2(CC1)Cc1ccccc1[C@H]2N` [Compound 19]: the IC50 in data set [3] is no more than 20 nM.
As to `Nc1nc(N2CCC3(CC2)Oc2ccccc2[C@H]3N)c(C2COC2)nc1Sc1cccc(-c2ncco2)c1Cl` [Compound 21, (R)-1′-(6-amino-5-((2-chloro-3-(oxazole-2-yl)phenyl)sulfanyl)-3-(oxetane-3-yl)pyrazine-2-yl)-3H-spiro[benzofuran-2,4′-piperidine]-3-amine], the IC50 in data set [2] was no more than 20 nM.
On the same count and under the same terms, the result for `C=Cc1nc(Sc2cccc(-c3ncco3)c2Cl)c(N)nc1N1CCC2(CC1)Oc1ccccc1[C@H]2N` [Compound 22] reads no more than 20 nM.
Still for that read-out and setting: in the case of `Nc1nc(N2CCC3(CC2)Oc2ccccc2[C@H]3N)c(F)nc1Sc1cccc(-c2ncco2)c1Cl` [Compound 23, (R)-1′-(6-amino-5-((2-chloro-3-(oxazole-2-yl)phenyl)sulfanyl)-3-fluoropyrazine-2-yl)-3H-spiro[benzofuran-2,4′-piperidine]-3-amine] it was no more than 20 nM.
For `CC(=O)c1nc(Sc2ccnc(-c3ncco3)n2)c(N)nc1N1CCC2(CC1)Oc1ccccc1[C@H]2N` [Compound 24, (R)-1-(5-amino-3-(3-amino-3H-spiro[benzofuran-2,4′-piperidine]-1′-yl)-6-((2-(oxazole-2-yl)pyrimidine-4-yl)sulfanyl)pyrazine-2-yl)ethanone], in data set [2], the IC50 was no more than 20 nM.
Consider `[2H][C@@]1(N)c2ccccc2OC12CCN(c1nc(N)c(Sc3ccnc(N)n3)nc1C(C)=O)CC2` [Compound 57], for which the IC50 in data set [2] and in data set [3] was no more than 20 nM throughout.
As to `COC(=O)c1nc(Sc2ccnc(N)c2Cl)c(N)nc1N1CCC2(CC1)Oc1ccccc1[C@H]2N` [Compound 58], the IC50 in data set [2] was no more than 20 nM.
As to `[2H][C@@]1(N)c2ccccc2OC12CCN(c1nc(N)c(Sc3ccnc(N)c3Cl)nc1C(=O)OC)CC2` [Compound 59], the IC50 in data set [2] and in data set [3] was no more than 20 nM in each case.
As to `[2H][C@@]1(N)c2ccccc2OC12CCN(c1nc(N)c(Sc3cccc(-c4ncco4)c3Cl)nc1C(C)=O)CC2` [Compound 60], in data set [2], the IC50 was no more than 20 nM.
One may read the MTD as the highest dose tested that stayed within the study's limit of toxicity. With `Nc1nc(N2CCC3(CC2)Oc2ccccc2[C@H]3N)cnc1Sc1ccnc(N)c1Cl` [TW-45, reference compound], in data set [5] (200 mg/kg once daily), the “days of administration after which death appeared” value was found to be 4 days and the “death by the 7th day (in words)” value was “all animals of the positive control had died by the 7th day”. Besides, in data set [5] (mouse, in vivo, once daily for 7 days, read-out: mouse maximum tolerated dose MTD), the MTD at 7 days was less than 200 mg/kg.
